Measurements taken from patent publication US20150087673A1, “METHODS FOR USING AND BIOMARKERS FOR AMPK-ACTIVATING COMPOUNDS” (RIGEL PHARMACEUTICALS, INC., priority 2013, published 2015).

test system: AMPK; test: AMPK activation assay (enzyme-linked immunosorbent assay); format: cell-based
Summary of the method: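 Kit-based immunoassay; compounds screened as activators; standard reagents and protocol.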

`N#Cc1ccc(CN2CCC(NC(=O)c3ccc(C(=O)N4CCC(C(O)c5ccc(F)cc5)CC4)cn3)CC2)cc1` (centres unmarked) [Compound 142, N-(1-(4-cyanobenzyl)piperidin-4-yl)-5-(4-((4-fluorophenyl)(hydroxy)methyl)piperidine-1-carbonyl)picolinamide] and `N#Cc1ccc(CN2CCC(NC(=O)c3ccc(C(=O)N4CCCC(Cc5ccc(F)cc5)C4)cn3)CC2)cc1` (centres unmarked) [Compound 152, N-(1-(4-cyanobenzyl)piperidin-4-yl)-5-(3-(4-fluorobenzyl)piperidine-1-carbonyl)picolinamide] cannot be ordered by EC50: less than 500 nM for the first, less than 500 nM for the second.

`COc1ccc(OC2CCN(C(=O)c3ccc(C(=O)NC4CCN(Cc5ccc(C#N)cc5)CC4)nc3)CC2)cc1` [Compound 143, N-(1-(4-cyanobenzyl)piperidin-4-yl)-5-(4-(4-methoxyphenoxy)piperidine-1-carbonyl)picolinamide] and `COc1ccc(CN2CCC(NC(=O)c3ccc(C(=O)N4CCC(Oc5ccc(C#N)cc5)CC4)cn3)CC2)cc1` [Compound 162, 5-(4-(4-cyanophenoxy)piperidine-1-carbonyl)-N-(1-(4-methoxybenzyl)piperidin-4-yl)picolinamide] cannot be ordered by EC50: less than 500 nM for the first, less than 500 nM for the second.

`N#Cc1ccc(CN2CCc3ccc(NC(=O)c4ccc(C(=O)NCc5ccc(F)cc5)cn4)cc3C2)cc1` [Compound 144, N2-(2-(4-cyanobenzyl)-1,2,3,4-tetrahydroisoquinolin-7-yl)-N5-(4-fluorobenzyl)pyridine-2,5-dicarboxamide] and `N#Cc1ccc(CN2CCC(NC(=O)c3ccc(C(=O)NCCOc4ccc(F)cc4)cn3)CC2)cc1` [Compound 149, N2-(1-(4-cyanobenzyl)piperidin-4-yl)-N5-(2-(4-fluorophenoxy)ethyl)pyridine-2,5-dicarboxamide] fall in the same range of EC50: 500 to 1000 nM for the first, 500 to 1000 nM for the second.

`Cc1ccc(CC2CCN(C(=O)c3ccc(C(=O)NC4CCN(Cc5ccc(C#N)cc5)CC4)nc3)CC2)cc1` [Compound 145, N-(1-(4-cyanobenzyl)piperidin-4-yl)-5-(4-(4-methylbenzyl)piperidine-1-carbonyl)picolinamide] and `COc1cccc(CC2CCN(C(=O)c3ccc(C(=O)NC4CCN(Cc5ccc(C#N)cc5)CC4)nc3)CC2)c1` [Compound 147, N-(1-(4-cyanobenzyl)piperidin-4-yl)-5-(4-(3-methoxybenzyl)piperidine-1-carbonyl)picolinamide] cannot be ordered by EC50: less than 500 nM for the first, less than 500 nM for the second.

`COc1ccc(CC2CCN(C(=O)c3ccc(C(=O)NC4CCN(Cc5ccc(C#N)cc5)CC4)nc3)CC2)cc1F` [Compound 146, N-(1-(4-cyanobenzyl)piperidin-4-yl)-5-(4-(3-fluoro-4-methoxybenzyl)piperidine-1-carbonyl)picolinamide] and `N#Cc1ccc(CN2CCC(NC(=O)c3ccc(C(=O)N4CCC(Oc5ccc(F)c(F)c5)CC4)cn3)CC2)cc1` [Compound 158, N-(1-(4-cyanobenzyl)piperidin-4-yl)-5-(4-(3,4-difluorophenoxy)piperidine-1-carbonyl)picolinamide] cannot be ordered by EC50: less than 500 nM for the first, less than 500 nM for the second.

`N#Cc1ccc(O[C@H]2CC[C@@H](NC(=O)c3ccc(C(=O)N4CCN(Cc5ccc(F)cc5)CC4)cn3)CC2)cc1` [Compound 150, N-(cis-4-(4-cyanophenoxy)cyclohexyl)-5-(4-(4-fluorobenzyl)piperazine-1-carbonyl)picolinamide] and `N#Cc1ccc(CN2CCC(NC(=O)c3ccc(C(=O)N4CCC(Oc5ccc(C(F)(F)F)cc5)CC4)cn3)CC2)cc1` [Compound 157, N-(1-(4-cyanobenzyl)piperidin-4-yl)-5-(4-(4-(trifluoromethyl)phenoxy)piperidine-1-carbonyl)picolinamide] cannot be ordered by EC50: less than 500 nM for the first, less than 500 nM for the second.

First: N#Cc1ccc(CN2CCC(NC(=O)c3ccc(C(=O)N4CCCCC4Cc4ccc(F)cc4)cn3)CC2)cc1 (centres unmarked) [Compound 153, N-(1-(4-cyanobenzyl)piperidin-4-yl)-5-(2-(4-fluorobenzyl)piperidine-1-carbonyl)picolinamide]
Second: N#Cc1ccc(CN2CCC(NC(=O)c3ccc(C(=O)N4CCC(C(=O)c5ccc(Cl)cc5)CC4)cn3)CC2)cc1 [Compound 154, 5-(4-(4-chlorobenzoyl)piperidine-1-carbonyl)-N-(1-(4-cyanobenzyl)piperidin-4-yl)picolinamide]
The EC50 of the first is higher: 1000 to 5000 nM for the first, less than 500 nM for the second.

`N#Cc1ccc(CN2CCC(NC(=O)c3ccc(C(=O)N4CCC(Oc5cccc(C#N)c5)CC4)cn3)CC2)cc1` [Compound 155, N-(1-(4-cyanobenzyl)piperidin-4-yl)-5-(4-(3-cyanophenoxy)piperidine-1-carbonyl)picolinamide] and `N#Cc1ccc(CN2CCC(NC(=O)c3ccc(C(=O)N4CCC(Oc5ccc(C#N)c(Cl)c5)CC4)cn3)CC2)cc1` [Compound 156, 5-(4-(3-chloro-4-cyanophenoxy)piperidine-1-carbonyl)-N-(1-(4-cyanobenzyl)piperidin-4-yl)picolinamide] cannot be ordered by EC50: less than 500 nM for the first, less than 500 nM for the second.

First: N#Cc1ccc(CN2CCC(NC(=O)c3ncc(C(=O)N4CCN(Cc5ccc(F)cc5)CC4)cc3C#CCNC(=O)COCCOCCOCCOCCNC(=O)CCCC[C@@H]3SC[C@@H]4NC(=O)N[C@@H]43)CC2)cc1 [Compound 159, N-(1-(4-cyanobenzyl)piperidin-4-yl)-3-(5,20-dioxo-24-((3aS,4S,6aR)-2-oxohexahydro-1H-thieno[3,4-d]imidazol-4-yl)-7,10,13,16-tetraoxa-4,19-diazatetracos-1-ynyl)-5-(4-(4-fluorobenzyl)piperazine-1-carbonyl)picolinamide]
Second: CC(C)(C)OC(=O)NCC#Cc1cc(C(=O)N2CCN(Cc3ccc(F)cc3)CC2)cnc1C(=O)NC1CCN(Cc2ccc(C#N)cc2)CC1 [Compound 164, tert-butyl 3-(2-(1-(4-cyanobenzyl)piperidin-4-ylcarbamoyl)-5-(4-(4-fluorobenzyl)piperazine-1-carbonyl)pyridin-3-yl)prop-2-ynylcarbamate]
The EC50 of the first is higher: 1000 to 5000 nM for the first, 500 to 1000 nM for the second.

`COc1ccc(CN2CCC(NC(=O)c3ccc(C(=O)N4CCC(C(=O)c5ccc(F)cc5)CC4)cn3)CC2)cc1` [Compound 160, 5-(4-(4-fluorobenzoyl)piperidine-1-carbonyl)-N-(1-(4-methoxybenzyl)piperidin-4-yl)picolinamide] and `COc1ccc(CN2CCC(NC(=O)c3ccc(C(=O)N4CCC(C(=O)c5ccc(OC)cc5)CC4)cn3)CC2)cc1` [Compound 163, 5-(4-(4-methoxybenzoyl)piperidine-1-carbonyl)-N-(1-(4-methoxybenzyl)piperidin-4-yl)picolinamide] cannot be ordered by EC50: less than 500 nM for the first, less than 500 nM for the second.

`COc1ccc(CN2CCC(NC(=O)c3ccc(C(=O)N4CCC(Oc5ccc(F)cc5)CC4)cn3)CC2)cc1` [Compound 161, 5-(4-(4-fluorophenoxy)piperidine-1-carbonyl)-N-(1-(4-methoxybenzyl)piperidin-4-yl)picolinamide] and `N#Cc1ccc(CN2CCC(NC(=O)c3ccc(N4CCC(Oc5ccc(C#N)cc5)CC4)cn3)CC2)cc1` [Compound 165, N-(1-(4-cyanobenzyl)piperidin-4-yl)-5-(4-(4-cyanophenoxy)piperidin-1-yl)picolinamide] cannot be ordered by EC50: less than 500 nM for the first, less than 500 nM for the second.

With `N#Cc1ccc(CN2CCC(NC(=O)c3ccc(C(=O)NC4CCN(c5ccc(C#N)cc5)CC4)cn3)CC2)cc1` [Compound 166, N2-(1-(4-cyanobenzyl)piperidin-4-yl)-N5-(1-(4-cyanophenyl)piperidin-4-yl)pyridine-2,5-dicarboxamide] the EC50 was less than 500 nM.
